We go through 1 compound from patent publication US20230123534A1, “LIPIDS FOR LIPID NANOPARTICLE DELIVERY OF ACTIVE AGENTS” (Acuitas Therapeutics, Inc., priority 2019, published 2023).

A short description of series [1]: Determination of pKa of formulated lipids (TNS fluorescence assay in lipid nanoparticles). Conditions: Table 1; cationic lipid formulated in LNP (cationic lipid/DSPC/cholesterol/PEG-lipid 50/10/38.5/1.5 mol%), TNS fluorescence, pH giving half-maximal fluorescence; read-out: pKa. The format is physicochemical. How it is done:
As described elsewhere, the pKa of formulated cationic lipids is correlated with the effectiveness of LNPs for delivery of nucleic acids (see Jayaraman et al, Angewandte Chemie, International Edition (2012), 51(34), 8529-8533; Semple et al, Nature Biotechnology 28, 172-176 (2010)). […] Lipid nanoparticles comprising cationic lipid/DSPC/cholesterol/PEG-lipid (50/10/38.5/1.5 mol%) in PBS at a concentration of 0.4 mM total lipid were prepared using the in-line process as described in Example 1. TNS was prepared as a 100 µM stock solution in distilled water. Vesicles were diluted to 24 µM lipid in 2 mL of buffered solutions containing, 10 mM HEPES, 10 mM MES, 10 mM ammonium acetate, 130 mM NaCl, where the pH ranged from 2.5 to 11. An aliquot of the TNS solution was added to give a final concentration of 1 µM and following vortex mixing fluorescence intensity was measured at room temperature in a SLM Aminco Series 2 Luminescence Spectrophotometer using excitation and emission wavelengths of 321 nm and 445 nm. A sigmoidal best fit analysis was applied to the fluorescence data and the pKa was measured as the pH giving rise to half-maximal fluorescence intensity.

In series [2] the test system is luciferase expression in the liver. In words: In vivo luciferase mRNA expression rodent model (liver luciferase after tail vein injection of FLuc mRNA lipid nanoparticles). The conditions noted are these: 0.5 mg mRNA/kg, liver 4 hours after administration, LNP 50% cationic lipid/10% DSPC/38.5% cholesterol/1.5% PEG-DMA or 47.5/10/40.7/1.8. Also on record: species or system mice.

Each structure is given as a SMILES string.

For orientation: pKa means the negative logarithm of the acid dissociation constant. As to `CCCCCCCCCCN(C(=O)CCCN(C)C)C(CCCCCCCCCOC(=O)C(CCCC)CCCCCC)CCCCCCCCCOC(=O)C(CCCC)CCCCCC` (centres unmarked) [Compound I-32, 10-(4-(DIMETHYLAMINO)-N-DECYLBUTANAMIDO)NONADECANE-1,19-DIYL BIS(2-BUTYLOCTANOATE)], in series [1], the pKa was 6.41. Also, in series [2], the “Liver Luc @ 0.5 mg/kg (ng luc/g liver)” value is listed as 4091 ± 713 ng luc/g liver.
